According to PMC5435703 (Scientific Reports, 2017):
≈ marks a conversion by molar mass, not a printed value. Where two headings read alike, the source gives them in different places. Marks after values point to notes of the source that are not given here.

Experiments:
MRSA-1707 biofilms = experiment: CBD pulse biofilm eradication experiment; type: cell-based, Staphylococcus aureus; settings: two subsequent 24 hour compound treatment phases
MRSA BAA-1707 [1] = experiment: Calgary Biofilm Device (CBD) MBC/MBEC assay; type: cell-based, Staphylococcus aureus
MRSA BAA-1707 [2] = experiment: MIC broth microdilution assay; type: cell-based, Staphylococcus aureus
MRSE 35984 [3] = experiment: MIC broth microdilution assay; type: cell-based, Staphylococcus epidermidis
VRE 700221 [4] = experiment: Calgary Biofilm Device (CBD) MBC/MBEC assay; type: cell-based, Enterococcus faecium; settings: for VRE 700221 MBEC: biofilm eradication; for MBC: read-out: VRE 700221 MBC
VRE 700221 [5] = experiment: MIC broth microdilution assay; type: cell-based, Enterococcus faecium
MRSA-1 = experiment: MIC broth microdilution assay; type: cell-based, Staphylococcus aureus; settings: for MIC: Staphylococcus aureus, MRSA
MRSA BAA-1707 [6] = experiment: MIC assay with metal(II) cation co-treatment; type: cell-based, Staphylococcus aureus
MRSE 35984 [7] = experiment: Calgary Biofilm Device (CBD) MBC/MBEC assay; type: cell-based, Staphylococcus epidermidis; settings: for MBC: read-out: MRSE 35984 MBC
[8] = LDH release assay for HeLa cytotoxicity; type: cell-based; settings: human, HeLa cells; LDH release, 24 hours; tested at 25, 50 and 100 µM; read-out: HeLa Cytotox. IC50
UV-Vis metal(II) binding = type: physicochemical; settings: UV-Vis kinetics, compared to HP 1
Protocol: The rates of halogenated phenazine-copper(II) complex formation were independently evaluated via UV-Vis spectrometry following addition of 0.5 equivalents copper(II) sulfate to stirring solutions of HP (10 mM, 4 mL) in dimethyl sulfoxide. Spectral scanning was performed from 200 to 800 nm in 2 nm increments. The disappearance of HPs 1, 17 and 22 was observed over the indicated time points. The halogenated phenazine-copper(II) complex formation yielded a loss in absorbance due to precipitation.

[9] = Hemolysis assay with red blood cells; settings: human, pH 7.2
MtB H37Ra = experiment: MIC assay for Mycobacterium tuberculosis; type: cell-based; settings: 168 h, seven days
four MRSA isolates = experiment: MIC assays, panel of four MRSA isolates; type: cell-based; settings: Staphylococcus aureus, range over isolates, read-out: MIC against a panel of four MRSA isolates
MRSA BAA-44 = experiment: MIC broth microdilution assay; type: cell-based; settings: Staphylococcus aureus; Table 1; read-out: MIC MRSA BAA-44
MRSA-2 = experiment: MIC broth microdilution assay; type: cell-based, Staphylococcus aureus; settings: Table 1; read-out: MIC MRSA-2
[10] = CBD, planktonic killing, 24 hours treatment, read-out: MRSA BAA-1707 MBC
[11] = Table 1, read-out: MIC MRSE 35984
[12] = Table 3, read-out: MRSE 35984 MIC
[13] = Staphylococcus aureus, Table 2, MRSA BAA-1707, no metal(II) cation added, read-out: MIC
[14] = Staphylococcus aureus, copper(II) at 200 µM co-treatment, read-out: MIC w/Cu2+
[15] = Staphylococcus aureus, iron(II) at 200 µM co-treatment, read-out: MIC w/Fe2+
[16] = Staphylococcus aureus, magnesium(II) at 200 µM co-treatment, read-out: MIC w/Mg2+
[17] = Staphylococcus aureus, zinc(II) at 200 µM co-treatment, read-out: MIC w/Zn2+
[18] = Staphylococcus aureus, Table 1, three independent experiments, read-out: MIC MRSA BAA-1707
[19] = Staphylococcus aureus, Table 3, read-out: MRSA BAA-1707 MIC
[20] = Table 1, three independent experiments

With CCCCCCCCCCCCCCCC[N+](C)(C)Cc1ccccc1.[Cl-] [BAC-16, reference compound] the “MBEC, pulse treatment” value (MRSA-1707 biofilms) was 25 µM, the “MRSA BAA-1707 MBEC” value (MRSA BAA-1707 [1]; CBD, biofilm eradication, 24 hours treatment) was 15.6 µM and the MBC (MRSA BAA-1707 [1]; [10]) was 31.3 µM. The MIC (MRSA BAA-1707 [2]; Table 1, three independent experiments, read-out: MIC MRSA BAA-1707) was 1.56 µM, the MIC (MRSA BAA-1707 [2]; Table 3, read-out: MRSA BAA-1707 MIC) was 1.56 µM and the MIC (MRSE 35984 [3]; [11]) was 1.56 µM. For the same compound, the MIC (MRSE 35984 [3]; [12]) was 1.56 µM, the “VRE 700221 MBEC” value (VRE 700221 [4]; CBD) was 3.0 µM and the MBC (VRE 700221 [4]; CBD, planktonic killing) was 5.9 µM. It also gave an MIC (VRE 700221 [5]; Table 1, read-out: MIC VRE 700221) of 3.13 µM and an MIC (VRE 700221 [5]; Table 3, read-out: VRE 700221 MIC) of 3.13 µM.

For O=C(O)CN(CCN(CC(=O)O)CC(=O)O)CC(=O)O [EDTA, ethylenediaminetetraacetic acid, reference compound], the “Hemolysis at 200 µM (%)” value (human red blood cells; human, 1 h, pH 7.2) was ≤1%, the MIC (MRSA-1; Table 1, read-out: MIC MRSA-1) was 12.5 µM (≈ 3.65 µg/mL) and the MIC (MRSA BAA-1707 [6]; [13]) was 25 µM. It also gave an MIC (MRSA BAA-1707 [6]; [14]) of 50 µM, an MIC (MRSA BAA-1707 [6]; [15]) of 50 µM and an MIC (MRSA BAA-1707 [6]; [16]) of 50 µM. The MIC (MRSA BAA-1707 [6]; [17]) was 50 µM, the MBC (MRSA BAA-1707 [1]; Staphylococcus aureus, 24 h, read-out: MRSA BAA-1707 MBC) was > 2000 µM and the minimal effective concentration (MRSA BAA-1707 [1]; Staphylococcus aureus, 24 h, read-out: MRSA BAA-1707 MBEC) was > 2000 µM. The minimal effective concentration (MRSE 35984 [7]; Staphylococcus epidermidis, MRSE, 24 h, read-out: MRSE 35984 MBEC) was > 2000 µM, the MBC (MRSE 35984 [7]; Staphylococcus epidermidis, MRSE) was 1000 µM (≈ 292 µg/mL) and the MIC (MRSA BAA-1707 [2]; [18]) was 25 µM (≈ 7.31 µg/mL). For the same compound, the MIC (MRSA BAA-1707 [2]; [19]) was 25 µM (≈ 7.31 µg/mL), the minimal effective concentration (VRE 700221 [4]; Enterococcus, VRE, 24 h, read-out: VRE 700221 MBEC) was 93.8 µM and the MBC (VRE 700221 [4]; Enterococcus, VRE) was > 2000 µM.

For Oc1c(Br)cc(Br)c2nc3c(Cl)cccc3nc12 [HP 21], the IC50 at 24 h [8] was > 100 µM, the “rate of copper(II) chelation” value (UV-Vis metal(II) binding) was “faster rate than HP 1” and the hemolysis at 1 h, 200 µM [9] was ≤ 1%. For the same compound, the MIC (MtB H37Ra) was 50 µM (≈ 19.4 µg/mL), the MIC (MRSA-1; Table 1, read-out: MIC MRSA-1) was ≤ 0.1 µM and the MIC (MRSA-1; single plate shown as picture, read-out: MIC (µM), MIC Assay Against MRSA-1) was 0.1 µM (≈ 0.0388 µg/mL). The MIC (MRSA BAA-1707 [6]; Staphylococcus aureus, Fe(II) co-treatment plate, lanes without metal, read-out: MIC) was 0.1 µM, the MIC (MRSA BAA-1707 [6]; [13]) was 0.1 µM and the MIC (MRSA BAA-1707 [6]; Staphylococcus aureus, Zn(II) extended plate assay, lanes without metal, read-out: MIC) was 0.1 µM. It also gave an MIC (MRSA BAA-1707 [6]; [14]) of 6.25 µM, an MIC (MRSA BAA-1707 [6]; [15]) of 0.59 µM and an MIC (MRSA BAA-1707 [6]; [16]) of 0.15 µM. For the same compound, the MIC (MRSA BAA-1707 [6]; [17]) was 0.15 µM, the MIC (MRSA BAA-1707 [6]; extended plate assay, 200 µM Zn(II), read-out: MIC (µM) + Zn(II)) was 0.10 µM and the MIC (MRSA BAA-1707 [6]; single plate, 200 µM Fe(II), read-out: MIC (µM) + Fe(II)) was 0.78 µM. The MIC (four MRSA isolates) was 0.05 to 0.59 µM (≈ 0.0194 to 0.229 µg/mL), the MBC (MRSA BAA-1707 [1]; Staphylococcus aureus, 24 h, CBD, planktonic killing, 24 hours treatment, read-out: MRSA BAA-1707 MBC) was 6.25 µM (≈ 2.43 µg/mL) and the MBC (MRSA BAA-1707 [1]; Staphylococcus aureus, 24 h, supplement page 27, second CBD plate, read-out: MRSA Planktonic Killing MBC) was 6.25 µM (≈ 2.43 µg/mL). The MIC (MRSA BAA-1707 [2]; [18]) was 0.05 to 0.3 µM (≈ 0.0194 to 0.117 µg/mL), the MIC (MRSA BAA-1707 [2]; [19]) was 0.08 µM (≈ 0.0311 µg/mL) and the MIC (MRSA BAA-1707 [2]; Staphylococcus aureus, single plate shown as picture, read-out: MIC (µM), MIC Assay against MRSA BAA-1707) was 0.1 µM (≈ 0.0388 µg/mL). The “MIC MRSA BAA-1707” value (MRSA BAA-1707 [2]; [20]) was 0.08^a µM, the MIC (MRSE 35984 [3]; Staphylococcus epidermidis, MRSE, Table 3, read-out: MRSE 35984 MIC) was 0.3 µM (≈ 0.117 µg/mL) and the MIC (MRSE 35984 [3]; Staphylococcus epidermidis, MRSE, single plate shown as picture, read-out: MIC (µM), MIC Assay Against MRSE 35984) was 0.2 µM (≈ 0.0777 µg/mL). For the same compound, the “VRE 700221 MBEC” value (VRE 700221 [4]; CBD) was 25/25 µM, the MBC (VRE 700221 [4]; Enterococcus, VRE, CBD, planktonic killing) was 25 µM (≈ 9.71 µg/mL) and the MIC (MRSA BAA-44) was 0.59 µM (≈ 0.229 µg/mL). It also gave an MIC (VRE 700221 [5]; Enterococcus, VRE, Table 3, read-out: VRE 700221 MIC) of 1.56 µM (≈ 0.606 µg/mL) and an MIC (VRE 700221 [5]; Enterococcus, VRE, single plate shown as picture, read-out: MIC (µM), MIC Assay Against VRE 700221) of 1.56 µM (≈ 0.606 µg/mL).

For c1ccc(CN(CCN(Cc2ccccn2)Cc2ccccn2)Cc2ccccn2)nc1 [TPEN, reference compound], the “Hemolysis at 200 µM (%)” value (human red blood cells) was ≤1%, the “MIC MRSA-1” value (MRSA-1; Table 1) was 75^a µM and the MIC (MRSA BAA-1707 [6]; Table 2, MRSA BAA-1707, no metal(II) cation added) was 46.9^a µM. It also gave an MIC (MRSA BAA-1707 [6]; copper(II) at 200 µM co-treatment, read-out: MIC w/Cu2+) of 500 µM, an MIC (MRSA BAA-1707 [6]; iron(II) at 200 µM co-treatment, read-out: MIC w/Fe2+) of 125 µM and an MIC (MRSA BAA-1707 [6]; magnesium(II) at 200 µM co-treatment, read-out: MIC w/Mg2+) of 62.5 µM. The MIC (MRSA BAA-1707 [6]; zinc(II) at 200 µM co-treatment, read-out: MIC w/Zn2+) was 250 µM, the MBC (MRSA BAA-1707 [1]; [10]) was 375 µM (≈ 159 µg/mL) and the “MRSA-1707 Biofilm Eradication MBEC” value (MRSA BAA-1707 [1]; Figure 7A, single CBD plate) was > 2000 µM. For the same compound, the MBC (MRSA BAA-1707 [1]; Figure 7A, single CBD plate, read-out: MRSA-1707 Planktonic Eradication MBC) was 250 µM (≈ 106 µg/mL), the “MRSA Biofilm Eradication MBEC” value (MRSA BAA-1707 [1]; supplement page 27, first CBD plate) was > 2000 µM and the MBC (MRSA BAA-1707 [1]; supplement page 27, first CBD plate, read-out: MRSA Planktonic Killing MBC) was 250 µM (≈ 106 µg/mL). For the same compound, the “MRSE 35984 MBEC” value (MRSE 35984 [7]; CBD, biofilm eradication) was > 2000 µM, the MBC (MRSE 35984 [7]; CBD, planktonic killing) was 250 µM (≈ 106 µg/mL) and the “MIC MRSA BAA-1707” value (MRSA BAA-1707 [2]; [20]) was 46.9^a µM. The “MRSA BAA-1707 MIC” value (MRSA BAA-1707 [2]; Table 3) was 46.9^a µM, the MIC (MRSE 35984 [3]; [11]) was 12.5 µM (≈ 5.31 µg/mL) and the MIC (MRSE 35984 [3]; [12]) was 12.5 µM (≈ 5.31 µg/mL). For the same compound, the MIC (MRSA-2) was 50 µM (≈ 21.2 µg/mL).
